Assay results as given in PMC5068570 (Journal of the American Chemical Society, 2016).

Target: T1, Robo1 (Roundabout receptor 1; Robo1-GFP) (Homo sapiens, UniProt Q9Y6N7)
T1 sequence (Q9Y6N7 60-265 limits assumed): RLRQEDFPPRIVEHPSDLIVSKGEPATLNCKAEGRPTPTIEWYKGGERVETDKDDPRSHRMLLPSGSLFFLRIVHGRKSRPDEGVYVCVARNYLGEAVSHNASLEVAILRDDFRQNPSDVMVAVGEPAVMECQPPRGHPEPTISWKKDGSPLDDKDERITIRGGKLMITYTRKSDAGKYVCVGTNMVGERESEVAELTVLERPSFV
Assay: SPR, Biacore T100, Robo1 immobilised on CM5
Format: binding
Conditions: HBS-EP pH 7.4, 150 mM NaCl, 25 °C; Langmuir 1:1 fit

Row | Substance | Kd [µM]
1 | GlcA-GlcNS6S-IdoA-GlcNS-IdoA2S-GlcNS6S-IdoA-GlcNAc6S [compound 1] | 4.8
2 | IdoA-GlcNS6S-IdoA-GlcNS6S [compound 19] | ~20
